In PubChem BioAssay AID328 (DTP/NCI, 2004) one finds T/C data, which are given here for 18 compounds.

Where “and” joins values, the source holds several entries; their conditions need not be identical. Identical values can stand only once. Toxic doses and inconclusive results are not listed.

In the assay the test system is BDF1 mice, P388 leukemia ip, median survival T/C. Put plainly: NCI In Vivo Anticancer Drug Screen. Data for tumor model P388 Leukemia (intraperitoneal) in B6D2F1 (BDF1) mice. The conditions noted are these: endpoint: median survival time, higher = longer survival. In outline:
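Antitumour effect was judged in vivo: survival in drug-treated mice, normalised to that of vehicle-dosed controls, gives the reported T/C.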

[1] abbreviates: dose: 50.0 mg/kg/injection, schedule: Q01DX009 (ip), vehicle: saline with Tween-80.
Where [2] appears, read: dose: 50.0 mg/kg/injection, schedule: Q01DX009 (ip), vehicle: saline.
Setting [3] is: dose: 100.0 mg/kg/injection, schedule: Q01DX009 (ip), vehicle: saline with Tween-80.
Where [4] appears, read: dose: 200.0 mg/kg/injection, schedule: Q01DX009 (ip), vehicle: saline with Tween-80.
Setting [5] is: dose: 100.0 mg/kg/injection, schedule: Q04DX003 (ip), vehicle: Klucel (hydroxypropylcellulose) (HPC).
Setting [6] is: dose: 200.0 mg/kg/injection, schedule: Q04DX003 (ip), vehicle: Klucel (hydroxypropylcellulose) (HPC).
The mark [7] stands for this setting: dose: 100.0 mg/kg/injection, schedule: Q01DX009 (ip), vehicle: Klucel (hydroxypropylcellulose) (HPC).
Where [8] appears, read: dose: 200.0 mg/kg/injection, schedule: Q01DX009 (ip), vehicle: Klucel (hydroxypropylcellulose) (HPC).
[9] abbreviates: dose: 400.0 mg/kg/injection, schedule: Q01DX009 (ip), vehicle: Klucel (hydroxypropylcellulose) (HPC).
[10] abbreviates: dose: 50.0 mg/kg/injection, schedule: Q04DX003 (ip), vehicle: Klucel (hydroxypropylcellulose) (HPC).

For `CCNNC(=O)[C@@H]1[C@H](c2cc(OC)c(OC)c(OC)c2)c2cc3c(cc2[C@H](O)[C@H]1CO)OCO3`, the T/C (dose: 12.5 mg/kg/injection, schedule: Q01DX009 (ip), vehicle: saline) is 109 % of control; the T/C (dose: 25.0 mg/kg/injection, schedule: Q01DX009 (ip), vehicle: saline) was 100 % of control; the T/C under setting [1] was 116 % of control; the T/C under setting [2] was 122 % of control; the T/C under setting [3] is 90 % of control; the T/C (dose: 100.0 mg/kg/injection, schedule: Q04DX003 (ip), vehicle: saline with Tween-80) was 108 % of control. The T/C runs as follows: under setting [4], 90 % of control; (dose: 200.0 mg/kg/injection, schedule: Q04DX003 (ip), vehicle: saline with Tween-80) 104 % of control.

On to `OC(C1CCCCC1)(C1CCCCC1)C1CCCCC1`, for which the T/C by setting is: (dose: 100.0 mg/kg/injection, schedule: Q01DX009 (ip), vehicle: other) 104 % of control; under setting [5], 91 % of control; (dose: 200.0 mg/kg/injection, schedule: Q01DX009 (ip), vehicle: other) 100 % of control; under setting [6], 100 % of control; (dose: 400.0 mg/kg/injection, schedule: Q01DX009 (ip), vehicle: other) 109 % of control; (dose: 400.0 mg/kg/injection, schedule: Q04DX003 (ip), vehicle: Klucel (hydroxypropylcellulose) (HPC)) 91 % of control.

With `C=C(C)C12CC(COC(=O)c3ccccc3)C34OC5(OC1C3C1OC1(CO)C(O)C1(O)C(OC(=O)c3ccccc3)C(C)C(C(C)CCCCCCC5O)C14)O2` (centres undefined), the T/C (dose: 0.25 mg/kg/injection, schedule: Q01DX009 (ip), vehicle: saline) is 113 % of control; the T/C (dose: 0.5 mg/kg/injection, schedule: Q01DX009 (ip), vehicle: saline) is 122 % of control; the T/C (dose: 0.75 mg/kg/injection, schedule: Q01DX009 (ip), vehicle: saline) was 150 % of control; the T/C (dose: 0.5 micrograms/kg/injection, schedule: Q01DX009 (ip), vehicle: saline + alcohol) was 111 % of control; the T/C (dose: 0.8 micrograms/kg/injection, schedule: Q01DX009 (ip), vehicle: gum acacia) was 100 % of control; the T/C (dose: 0.8 micrograms/kg/injection, schedule: Q01DX009 (ip), vehicle: saline + alcohol) is 124 % of control. The T/C reads like this: (dose: 0.8 micrograms/kg/injection, schedule: Q01DX009 (ip), vehicle: saline with Tween-80) 162 % of control; (dose: 1.0 micrograms/kg/injection, schedule: Q01DX009 (ip), vehicle: saline + alcohol) 108 % of control; (dose: 1.6 micrograms/kg/injection, schedule: Q01DX009 (ip), vehicle: saline + alcohol) 238 % of control; (dose: 1.6 micrograms/kg/injection, schedule: Q01DX009 (ip), vehicle: saline with Tween-80) 175 % of control; (dose: 2.0 micrograms/kg/injection, schedule: Q01DX009 (ip), vehicle: saline + alcohol) 104 % of control; (dose: 3.1 micrograms/kg/injection, schedule: Q01DX009 (ip), vehicle: saline + alcohol) 153 % of control. Moreover, the T/C (dose: 3.1 micrograms/kg/injection, schedule: Q01DX009 (ip), vehicle: saline with Tween-80) was 175 % of control; the T/C (dose: 6.3 micrograms/kg/injection, schedule: Q01DX009 (ip), vehicle: gum acacia) was 120 % of control; the T/C (dose: 6.3 micrograms/kg/injection, schedule: Q01DX009 (ip), vehicle: saline + alcohol) was 175 % of control; the T/C (dose: 12.5 micrograms/kg/injection, schedule: Q01DX009 (ip), vehicle: gum acacia) was 118 % of control; the T/C (dose: 12.5 micrograms/kg/injection, schedule: Q01DX009 (ip), vehicle: saline + alcohol) is 179 % of control; the T/C (dose: 25.0 micrograms/kg/injection, schedule: Q01DX009 (ip), vehicle: gum acacia) was 120 % of control. Moreover, for the setting “dose: 50.0 micrograms/kg/injection, schedule: Q01DX009 (ip), vehicle: gum acacia”, the T/C was 124 % of control.

On to `CCCCC(C)C(=O)CC(SCC)c1ccccc1` (centres undefined), for which the T/C under setting [1] was 103 % of control, the T/C under setting [3] is 114 % of control and the T/C under setting [4] is 105 % of control.

For the compound `COC(=O)C1CCCCC1C(=O)OC` (centres undefined), the T/C by setting is: (dose: 100.0 mg/kg/injection, schedule: Q01DX009 (ip), vehicle: saline) 90 % of control; (dose: 200.0 mg/kg/injection, schedule: Q01DX009 (ip), vehicle: saline) 95 % of control; (dose: 264.0 mg/kg/injection, schedule: Q01DX009 (ip), vehicle: saline with Tween-80) 109 % of control; (dose: 400.0 mg/kg/injection, schedule: Q01DX009 (ip), vehicle: saline with Tween-80) 109 % of control.

In the case of `NCCc1ccc(O)c(O)c1`, the T/C is, setting by setting: (dose: 37.5 mg/kg/injection, schedule: Q01DX009 (ip), vehicle: saline) 101 % of control and 120 % of control; (dose: 75.0 mg/kg/injection, schedule: Q01DX009 (ip), vehicle: saline) 114 % of control; (dose: 150.0 mg/kg/injection, schedule: Q01DX009 (ip), vehicle: saline) 111 % of control; (dose: 300.0 mg/kg/injection, schedule: Q01DX009 (ip), vehicle: saline) 158 % of control.

For `CC12CCC3c4ccc(OP(=O)(N5CC5)N5CC5)cc4CCC3C1CCC2O` (centres undefined), the T/C is 102 % of control (dose: 12.5 mg/kg/injection, schedule: Q01DX009 (ip), vehicle: saline with Tween-80); 93 % of control (dose: 25.0 mg/kg/injection, schedule: Q01DX009 (ip), vehicle: saline with Tween-80); 121 % of control under setting [1]; 121 % of control under setting [3].

Take `CCOC(=O)CN(CC)C(=O)NC12CC3CC(CC(C3)C1)C2`: the T/C was 100 % of control under setting [7], 103 % of control under setting [8] and 102 % of control under setting [9].

As to `C1OCC2[CH2][Hg][S][Hg][CH2]C1O2`, the T/C was 109 % of control (dose: 1.25 mg/kg/injection, schedule: Q01DX010 (ip), vehicle: saline); 104 % of control (dose: 2.5 mg/kg/injection, schedule: Q01DX010 (ip), vehicle: saline); 109 % of control (dose: 5.0 mg/kg/injection, schedule: Q01DX010 (ip), vehicle: saline); 122 % of control (dose: 10.0 mg/kg/injection, schedule: Q01DX010 (ip), vehicle: saline).

In the case of `COC(=O)/C=C1\Sc2ccc(Cl)cc2NC1=O`, the T/C was 93 % of control under setting [1], 86 % of control under setting [3] and 93 % of control under setting [4].

Take `COc1cc2c(c(OC)c1OC)-c1ccc(SC)c(=O)cc1[C@@H](NC1OC(CO)C(O)C(O)C1O)CC2` (some centres undefined): the T/C under setting [2] is 155 % of control.

As to `Nc1c(Br)cc(Br)c2ccccc12`, the T/C by setting is: under setting [7], 95 % of control; under setting [8], 113 % of control; under setting [9], 109 % of control.

For the compound `C=C1CCCCC1O` (centres undefined), the T/C under setting [1] was 101 % of control, the T/C under setting [3] is 95 % of control and the T/C under setting [4] is 101 % of control.

With `C=C1C(=O)OC2C=C(C)C3C(O)CC(C)(O)C3CC12` (centres undefined), the T/C under setting [7] was 114 % of control and the T/C under setting [8] is 102 % of control.

For the compound `CCCCCCNP(=O)(N1CC1)N1CC1`, the T/C (dose: 16.5 mg/kg/injection, schedule: Q04DX003 (ip), vehicle: saline with Tween-80) is 168 % of control; the T/C (dose: 25.0 mg/kg/injection, schedule: Q04DX003 (ip), vehicle: saline with Tween-80) was 227 % of control; the T/C (dose: 37.5 mg/kg/injection, schedule: Q04DX003 (ip), vehicle: saline with Tween-80) was 272 % of control.

Turning to `CCC(C)C(NC(=O)CCN)C(=O)O` (centres undefined), the T/C reads like this: (dose: 50.0 mg/kg/injection, schedule: Q01DX005 (ip), vehicle: saline) 104 % of control; (dose: 100.0 mg/kg/injection, schedule: Q01DX005 (ip), vehicle: saline) 103 % of control; (dose: 200.0 mg/kg/injection, schedule: Q01DX005 (ip), vehicle: saline) 100 % of control.

As for `O=P(Cc1ccccc1)(C(O)c1ccccc1)C(O)c1ccccc1` (centres undefined), the T/C reads like this: under setting [10], 100 % of control; under setting [5], 100 % of control; under setting [6], 100 % of control.

`CCC(=O)NC(N)=S`: the T/C (dose: 12.5 mg/kg/injection, schedule: Q04DX003 (ip), vehicle: Klucel (hydroxypropylcellulose) (HPC)) was 100 % of control; the T/C (dose: 25.0 mg/kg/injection, schedule: Q04DX003 (ip), vehicle: Klucel (hydroxypropylcellulose) (HPC)) was 100 % of control; the T/C under setting [10] is 100 % of control.
